According to US20060069132A1, “Azolecarboxamide herbicides” (priority 2004, published 2006):
Read-outs that look alike come from different tables or passages of the source.

How the values were obtained:
redroot pigweed = test: Test A pre-/postemergence herbicide test; format: in vivo, Amaranthus retroflexus; conditions: for pest or weed control at 125 g/ha / pest or weed control at 500 g/ha: Amaranthus retroflexus, 240 h, read-out: Pigweed plant response rating; for pest or weed control at 125 g/ha: 125 g ai/ha
Procedure, shortened: (§1)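 Visual injury rating on a 0–100 scale (0 no effect, 100 complete control) versus untreated controls, about ten days after treatment in greenhouse. Pre: directed soil spray onto seeded sandy loam. Post: spray to runoff on plants 2–10 cm tall at one- to two-leaf stage.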

barnyardgrass = test: Test C flooded paddy test; format: in vivo, Echinochloa crus-galli
Procedure, shortened: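 Greenhouse test with a 12–14 day hold after application and visual comparison with controls. Emerged plants were 1- to 4-leaf stage (2–18 cm) when sprayed postemergence, and the paddy barnyardgrass was at 2 leaves under flooded conditions. 100 = complete control.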

velvetleaf [1] = test: Test A pre-/postemergence herbicide test; format: in vivo, Abutilon theophrasti; conditions: for pest or weed control at 125 g/ha / pest or weed control at 500 g/ha: Abutilon theophrasti, 240 h, read-out: Velvetleaf plant response rating; for pest or weed control at 125 g/ha: 125 g ai/ha
Procedure, shortened: as §1

woolly cupgrass = test: Test C pre-/postemergence herbicide test; format: in vivo, Eriochloa villosa; conditions: preemergence
Source text: (§2) Seeds of plant species selected from bermudagrass (Cynodon dactylon (L.) Pers.), Surinam grass (Urochloa decumbens (Staph) R. D. Webster, previously named Brachiaria decumbens Stapf), cocklebur (Xanthium strumarium L.), corn (Zea mays L.), large crabgrass (Digitaria sanguinalis (L.) Scop.), woolly cupgrass (Eriochloa villosa (Thunb.) Kunth), giant foxtail (Setaria faberi Herrm.), goosegrass (Eleusine indica (L.) Gaertn.), johnsongrass (Sorghum halepense (L.) Pers.), kochia (Kochia scoparia (L.) Schrad.), lambsquarters (Chenopodium album L.), morningglory (Ipomoea coccinea L.), eastern black nightshade (Solanum ptycanthum Dunal), yellow nutsedge (Cyperus esculentus L.), pigweed (Amaranthus retroflexus L.), common ragweed (Ambrosia elatior L.), soybean (Glycine max (L.) Merr.), common (oilseed) sunflower (Helianthus annuus L.) and velvetleaf (Abutilon theophrasti Medik.) were planted and treated preemergence with test chemicals formulated in a non-phytotoxic solvent mixture which included a surfactant.
(§3) At the same time, plants selected from these crop and weed species and also winter barley (Hordeum vulgare L.), blackgrass (Alopecurus myosuroides Huds.), canarygrass (Phalaris minor Retz.), chickweed (Stellaria media (L.) Vill.), downy bromegrass (Bromus tectorum L.), green foxtail (Setaria viridis (L.) Beauv.), Italian ryegrass (Lolium multiflorum Lam.), wheat (Triticum aestivum L.), wild oat (Avenafatua L.) and windgrass (Apera spica-venti (L.) Beauv.) were treated with postemergence applications of some of the test chemicals formulated in the same manner. Plants ranged in height from 2 to 18 cm (1- to 4-leaf stage) for postemergence treatments. Plant species in the flooded paddy test consisted of rice (Oryza sativa), smallflower umbrella sedge (Cyperus difformis L.), ducksalad (Heteranthera limosa (Sw.) Willd.) and barnyardgrass (Echinochloa crus-galli (L.) Beauv.) grown to the 2-leaf stage for testing. Treated plants and controls were maintained in a greenhouse for 12 to 14 days, after which time all species were compared to controls and visually evaluated. Plant response ratings, summarized in Table C, are based on a scale of 0 to 100 where 0 is no effect and 100 is complete control. A dash (-) response means no test result.

velvetleaf [2] = test: Test C pre-/postemergence herbicide test; format: in vivo, Abutilon theophrasti; conditions: preemergence
Source text: as §2, §3

bermudagrass = test: Test C pre-/postemergence herbicide test; format: in vivo, Cynodon dactylon
Source text: as §2, §3

kochia = test: Test C pre-/postemergence herbicide test; format: in vivo, Kochia scoparia; conditions: preemergence
Source text: as §2, §3

giant foxtail = test: Test C pre-/postemergence herbicide test; format: in vivo, Setaria faberi; conditions: preemergence
Source text: as §2, §3

goosegrass = test: Test C pre-/postemergence herbicide test; format: in vivo, Eleusine indica; conditions: preemergence
Source text: as §2, §3

[3] = Postemergence, 500 g ai/ha, 0 to 100 scale, 0 no effect, 100 complete control
[4] = Postemergence, 2000 g ai/ha, 0 to 100 scale, 0 no effect, 100 complete control
[5] = Preemergence, 2000 g ai/ha, visual rating, 0 to 100 scale (0 no effect, 100 complete control)
[6] = preemergence, 500 g ai/ha, visual injury, 0 to 100 scale (0 no effect, 100 complete control)
[7] = 62 g ai/ha, scale 0 to 100 (0 no effect, 100 complete control)
[8] = 250 g ai/ha, scale of 0 to 100, 0 is no effect, 100 is complete control
[9] = 500 g ai/ha, visual rating after 12 to 14 days, scale 0 to 100 (0 no effect, 100 complete control)
[10] = 125 g ai/ha, scale 0 to 100 (0 no effect, 100 complete control)
[11] = post-emergence, Postemergence, 0 to 100 scale, 0 no effect, 100 complete control
[12] = post-emergence, Postemergence, 500 g ai/ha, 0 to 100 scale, 0 no effect, 100 complete control
[13] = pre-emergence, preemergence, visual injury, 0 to 100 scale (0 no effect, 100 complete control)
[14] = pre-emergence, preemergence, 500 g ai/ha, visual injury, 0 to 100 scale (0 no effect, 100 complete control)

| Structure (SMILES) | Pigweed plant response rating (redroot pigweed; [3]) | Plant response rating, Pigweed (redroot pigweed; [4]) | Pigweed plant response rating (redroot pigweed; [5]) | Pigweed plant response rating (redroot pigweed; [6]) | Barnyardgrass plant response rating (barnyardgrass; [7]) | Barnyardgrass plant response rating (barnyardgrass; [8]) | Plant response rating, Barnyardgrass (barnyardgrass; [9]) | Velvetleaf plant response rating (velvetleaf [1]; [3]) | Plant response rating, Velvetleaf (velvetleaf [1]; [4]) | Velvetleaf plant response rating (velvetleaf [1]; [5]) | Velvetleaf plant response rating (velvetleaf [1]; [6]) | Barnyardgrass plant response rating (barnyardgrass; [10]) | also measured |
| --- | --- | --- | --- | --- | --- | --- | --- | --- | --- | --- | --- | --- | --- |
| C=Cn1nc(C(C)(C)C)cc1C(=O)Nc1cccc(C(C)=O)c1 [Compound 127] | 40 | 50 | 50 | 40 | 20 | 30 | 55 | 0 | 0 | 30 | 10 | – | Barnyardgrass plant response rating (barnyardgrass; 125 g ai/ha, scale of 0 to 100, 0 is no effect, 100 is complete control): 30 |
| CCn1nc(C(C)(C)C)c(F)c1C(=O)Nc1cc(C(=O)N(C)C)ccc1F [Compound 276, N-[5-[(dimethylamino)carbonyl]-2-fluorophenyl]-3-(1,1-dimethylethyl)-1-ethyl-4-fluoro-1H-pyrazole-5-carboxamide] | – | – | – | – | – | – | – | – | – | – | – | – | pest or weed control at 62 g/ha (barnyardgrass; Echinochloa crus-galli, 62 g ai/ha, scale 0 to 100 (0 no effect, 100 complete control), read-out: Barnyardgrass plant response rating): 0%; pest or weed control at 125 g/ha (barnyardgrass; Echinochloa crus-galli, 125 g ai/ha, scale 0 to 100 (0 no effect, 100 complete control), read-out: Barnyardgrass plant response rating): 15%; pest or weed control at 250 g/ha (barnyardgrass; Echinochloa crus-galli, 250 g ai/ha, scale of 0 to 100, 0 is no effect, 100 is complete control, read-out: Barnyardgrass plant response rating): 50%; pest or weed control at 500 g/ha (barnyardgrass; Echinochloa crus-galli, 500 g ai/ha, visual rating after 12 to 14 days, scale 0 to 100 (0 no effect, 100 complete control), read-out: Plant response rating, Barnyardgrass): 70% |
| C=CCN(C)C(=O)c1cccc(NC(=O)c2cc(C(C)(C)C)nn2CC)c1 [Compound 285] | 80 | 100 | 100 | 100 | 10 | 55 | 75 | 60 | 75 | 40 | 35 | 25 | – |
| CCOC(=O)c1cccc(NC(=O)c2cc(C(C)(C)C)nn2C)n1 [Compound 313] | 100 | 100 | 100 | 95 | 0 | – | – | 40 | 50 | 80 | 65 | 0 | Barnyardgrass plant response rating (barnyardgrass; 16 g ai/ha, scale 0 to 100): 0; Barnyardgrass plant response rating (barnyardgrass; 31 g ai/ha, scale 0 to 100): 0 |
| CCNC(=O)c1ccc(F)c(NC(=O)c2c3c(nn2CC)C(C)(C)CC3)c1 [Compound 353] | – | – | – | – | 0 | 20 | 20 | – | – | – | – | 0 | – |
| CCc1nn(C(C)(C)C)nc1C(=O)Nc1cccc(C(=O)N(C)CC)c1 [Compound 384] | – | – | – | – | 65 | 90 | 95 | – | – | – | – | 75 | Plant response rating, Cupgrass, Woolly (woolly cupgrass; 62 g ai/ha, scale 0 to 100): 55; Plant response rating (0 = no effect, 100 = complete control), Cupgrass, Woolly (woolly cupgrass; 125 g ai/ha): 75; Plant response rating, Cupgrass, Woolly (woolly cupgrass; 250 g ai/ha, scale 0-100): 95; Plant response rating, Velvetleaf (velvetleaf [2]; 62 g ai/ha, scale 0 to 100): 100; Plant response rating (0 = no effect, 100 = complete control), Velvetleaf (velvetleaf [2]; 125 g ai/ha): 100; Plant response rating, Velvetleaf (velvetleaf [2]; 250 g ai/ha, scale 0-100): 100; Plant response rating, Bermudagrass (bermudagrass; 31 g ai/ha, scale 0 to 100, 0 no effect, 100 complete control, last section of Table C (species set of preemergence test)): 65; Plant response rating, Bermudagrass (bermudagrass; 62 g ai/ha, preemergence, scale 0 to 100, 0 no effect, 100 complete control): 100; Plant response rating (0 = no effect, 100 = complete control), Bermudagrass (bermudagrass; 125 g ai/ha, preemergence): 100; Plant response rating, Bermudagrass (bermudagrass; 250 g ai/ha, scale 0-100, preemergence): 100; Plant response rating, Kochia (kochia; 62 g ai/ha, scale 0 to 100): 90; Plant response rating (0 = no effect, 100 = complete control), Kochia (kochia; 125 g ai/ha): 100; Plant response rating, Kochia (kochia; 250 g ai/ha, scale 0-100): 100; Plant response rating, Foxtail, Giant (giant foxtail; 62 g ai/ha, scale 0 to 100): 95; Plant response rating (0 = no effect, 100 = complete control), Foxtail, Giant (giant foxtail; 125 g ai/ha): 100; Plant response rating, Foxtail, Giant (giant foxtail; 250 g ai/ha, scale 0-100): 100; Plant response rating, Goosegrass (goosegrass; 62 g ai/ha, scale 0 to 100): 85; Plant response rating (0 = no effect, 100 = complete control), Goosegrass (goosegrass; 125 g ai/ha): 95; Plant response rating, Goosegrass (goosegrass; 250 g ai/ha, scale 0-100): 100 |
| CCNC(=O)c1cccc(NC(=O)c2nc(C(C)(C)C)nn2CC)c1 [Compound 446, 3-(1,1-dimethylethyl)-1-ethyl-N-[3-[(ethylamino)carbonyl]phenyl]-1H-1,2,4-triazole-5-carboxamide] | – | – | – | – | – | – | – | – | – | – | – | – | pest or weed control at 125 g/ha (redroot pigweed; [11]): 65%; pest or weed control at 500 g/ha (redroot pigweed; [12]): 80%; pest or weed control at 125 g/ha (redroot pigweed; [13]): 90%; pest or weed control at 500 g/ha (redroot pigweed; [14]): 100%; pest or weed control at 125 g/ha (velvetleaf [1]; [11]): 30%; pest or weed control at 500 g/ha (velvetleaf [1]; [12]): 60%; pest or weed control at 125 g/ha (velvetleaf [1]; [13]): 10%; pest or weed control at 500 g/ha (velvetleaf [1]; [14]): 20% |
